These results are taken from patent US20240342126A1, “HALLUCINOGEN-FATTY ACID COMBINATION” (Mindset Pharma Inc., priority 2021, published 2024).

A short description of data set [1]: Pharmacokinetics in plasma and CSF after i.n. or s.c. administration of 5-MeO-DMT formulations. Conditions: Sprague-Dawley, rat, plasma, iv, 1 mg/kg.
The test system of a further data set is C57BL/6J mice. In words: Mouse head twitch experiments. It counts as in vivo. The following applies: for head twitch response of combination with linoleic acid vs test compound alone: equimolar dose of linoleic acid, SC; for effect on test compound-induced head twitches: M100907 0.5 mg/kg IP pretreatment. The method, then: Male, C57BL/6J mice (body weight range 20-30 g) were dosed with the appropriate dose(s) of test compound, or combination of test compounds, and following pre-treatment, the animals were placed in individual observation chambers. Animals were visually assessed for the incidence head twitches continuously over a 1 hr period. Head twitches were defined as a rapid jerk of the head which was not elicited by an external tactile stimulus (Corne S J, Pickering R W (1967) Psychopharmacologia 11 (1): 65-78). Each head twitch was individually counted by a trained observer, and the data expressed as the mean±SEM of 4-10 mice per group. In addition to the total number of head twitches recorded over the 1 hr observation period, head twitches were also scored according to each specific 10 min time bin within the 1 hr observation period (i.e. 0-10 min, 10-20 min, 20-30 min, etc).
Two types of experiments were conducted. In one, the effect of linoleic acid in combination with a test compound (psilocybin or 1-4) was studied. In these experiments, both test compounds, or saline control was injected subcutaneously (SC) 1 min prior to testing. […] In these experiments, M100907 (0.5 mg/kg IP) was injected 30 min prior to a single dose of test compound (i.e. psilocybin or I-4). […] 1 min following SC administration of the test compound, the mice were placed in the observation chambers for measurement of head twitch response.

The target in a further data set is human 5-HT2A (Homo sapiens, UniProt P28223). Conditions: read-out: binding affinity 5-HT2A; cited from earlier work.
Chain of human 5-HT2A (P28223 whole entry): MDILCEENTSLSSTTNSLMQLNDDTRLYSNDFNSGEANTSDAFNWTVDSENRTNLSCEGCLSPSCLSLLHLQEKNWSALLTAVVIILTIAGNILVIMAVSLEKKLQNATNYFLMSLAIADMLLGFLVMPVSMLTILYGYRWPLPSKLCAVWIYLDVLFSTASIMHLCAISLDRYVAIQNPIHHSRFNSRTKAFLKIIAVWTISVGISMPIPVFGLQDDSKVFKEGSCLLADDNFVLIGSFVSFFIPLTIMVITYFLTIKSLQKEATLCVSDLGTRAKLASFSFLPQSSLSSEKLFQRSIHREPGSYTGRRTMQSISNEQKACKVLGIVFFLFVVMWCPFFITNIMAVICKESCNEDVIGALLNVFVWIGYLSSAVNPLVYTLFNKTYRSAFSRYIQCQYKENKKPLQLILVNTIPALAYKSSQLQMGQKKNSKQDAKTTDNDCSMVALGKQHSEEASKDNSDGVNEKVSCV

SMILES strings stand for the structures. Entries after “also recorded” stand apart in the source; their conditions may differ.

As a reminder, the AUC(0-inf) is the area under the concentration-time curve extrapolated to infinity. High values mean high exposure, low ones low exposure. As for `COc1ccc2[nH]cc(CCN(C)C)c2c1` [Compound 5-MeO-DMT, 5-methoxy-N,N-dimethyltryptamine], the AUC(0-inf) in data set [1] was found to be 35.3 ng·h/mL.

On to `[2H]C([2H])([2H])N(C([2H])([2H])[2H])C([2H])([2H])C([2H])([2H])c1c[nH]c2cccc(O)c12` [Compound I-4, 3-(2-(bis(methyl-d3)amino)ethyl-1,1,2,2-d4)-1H-indol-4-ol], for which the “head twitches over 1 hr (mean±SEM)” value in the data set with C57BL/6J mice (0.3 mg/kg SC + linoleic acid at […] SC) was determined as 7.8±0.6; with C57BL/6J mice (0.3 mg/kg SC + vehicle), 3.3±0.8. Also, the “head twitch response of combination with linoleic acid vs test compound alone” value in the data set on C57BL/6J mice is listed as “more head twitches”; in the data set on C57BL/6J mice (listed as 1-4), “greater head twitch response”.

With `COc1cccc([C@H](O)C2CCN(CCc3ccc(F)cc3)CC2)c1OC` [Compound M100907, reference compound], the “effect on test compound-induced head twitches” value in the data set on C57BL/6J mice (head twitches induced by I-4 6.2 mg/kg SC) and with C57BL/6J mice (head twitches induced by psilocybin 3 mg/kg SC) was “completely blocked” in each case.

For `CN(C)CCc1c[nH]c2ccccc12` [DMT, N,N-dimethyltryptamine], the Ki at human 5-HT2A was 237 nM.

As for `CCCCC/C=C\C/C=C\CCCCCCCC(=O)O` [linoleic acid], the “head twitches over 1 hr (mean±SEM)” value in the data set on C57BL/6J mice (linoleic acid alone 10 mg/kg SC) is listed as 1.0±0.7. Moreover, the “head twitches relative to vehicle” value in the data set on C57BL/6J mice (linoleic acid alone 0.1-10 mg/kg SC) is recorded as “did not induce head twitches to a significant degree; also recorded: no significant effect”.
